Among the data in ChEMBL document CHEMBL4196232, “A Series of Indole-Thiazole Derivatives Act as GPER Agonists and Inhibit Breast Cancer Cell Growth” (ACS Med Chem Lett, 2018) are inhibition, Activity and EC50 values, retold here.

SMILES strings stand for the structures. Calls of active or inactive are those of the source. The rule behind the calls is not given here.

The target of assay [1] is T1, G-protein coupled estrogen receptor 1 (Homo sapiens, UniProt Q99527). The assay can be described thus: Antagonist activity at GPER (unknown origin) expressed in human HL60 cells assessed as inhibition of G-1-induced cAMP accumulation preincubated for 20 mins followed by G-1 addition measured after 10 mins by HTRF assay. It is filed as functional, cell-based. In general terms: Cyclic AMP is a second messenger, typically raised through Gs and lowered through Gi signalling.
T1 sequence (Q99527 whole entry): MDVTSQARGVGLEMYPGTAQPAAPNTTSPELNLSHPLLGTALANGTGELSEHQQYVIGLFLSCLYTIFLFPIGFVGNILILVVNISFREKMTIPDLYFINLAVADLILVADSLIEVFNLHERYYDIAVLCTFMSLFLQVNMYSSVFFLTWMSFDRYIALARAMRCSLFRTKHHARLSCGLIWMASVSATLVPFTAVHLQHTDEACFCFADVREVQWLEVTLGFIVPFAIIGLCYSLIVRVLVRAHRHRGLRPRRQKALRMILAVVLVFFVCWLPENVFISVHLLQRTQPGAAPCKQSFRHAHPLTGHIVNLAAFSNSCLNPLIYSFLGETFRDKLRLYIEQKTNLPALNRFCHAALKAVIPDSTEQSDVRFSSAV

The next assay has as its system HL-60. The experiment in a line: Decrease in cAMP accumulation in human HL60 cells harboring GPER siRNA at 100 nM after 48 hrs by HTRF assay. Format: functional, cell-based.
For assay [2], the system named is SK-BR-3. The assay can be described thus: Cytotoxicity against human SKBR3 cells assessed as decrease in cell viability at 1 uM after 72 hrs in presence of GPER agonist E2 by MTS assay. It is filed as functional, cell-based. For orientation: Tetrazolium assays rely on reduction of a dye to a coloured formazan, in cell work by metabolically active cells.
The target in assay [3] is Estrogen receptor beta (Homo sapiens) (UniProt Q92731). The experiment in a line: Displacement of fluoromone from recombinant human full length untagged estrogen receptor beta expressed in insect cells after 2 hrs by fluorescence polarization assay. (In general: Fluorescence polarisation rises when a labelled molecule tumbles more slowly, as on binding a larger partner.)
Chain of Estrogen receptor beta (Homo sapiens) (Q92731 whole entry): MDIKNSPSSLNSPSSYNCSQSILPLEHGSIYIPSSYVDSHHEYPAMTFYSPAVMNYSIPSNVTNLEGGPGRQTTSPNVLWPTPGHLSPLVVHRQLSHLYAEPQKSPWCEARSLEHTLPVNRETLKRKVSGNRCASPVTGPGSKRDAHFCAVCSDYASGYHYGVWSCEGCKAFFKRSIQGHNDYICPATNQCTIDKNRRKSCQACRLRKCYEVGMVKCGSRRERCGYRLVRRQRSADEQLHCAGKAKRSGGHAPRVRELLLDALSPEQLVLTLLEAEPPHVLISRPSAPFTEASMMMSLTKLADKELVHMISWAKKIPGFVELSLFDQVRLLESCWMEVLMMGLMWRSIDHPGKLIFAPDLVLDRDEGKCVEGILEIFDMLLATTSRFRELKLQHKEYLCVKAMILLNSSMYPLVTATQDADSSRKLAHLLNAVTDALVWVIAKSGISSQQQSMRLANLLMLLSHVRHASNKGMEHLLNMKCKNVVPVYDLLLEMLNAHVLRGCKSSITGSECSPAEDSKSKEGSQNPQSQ

The subject of assay [4] is SK-BR-3. The assay can be described thus: Cytotoxicity against human SKBR3 cells assessed as decrease in cell viability at 1 uM after 72 hrs in absence of GPER agonist E2 by MTS assay. It is filed as functional, cell-based.
Assay [5] deals with MDA-MB-231. The assay can be described thus: Cytotoxicity against human MDA-MB-231 cells assessed as decrease in cell viability at 1 uM after 72 hrs in presence of GPER agonist E2 by MTS assay. It is filed as functional, cell-based.
For assay [6], the system named is MDA-MB-231. The assay can be described thus: Cytotoxicity against human MDA-MB-231 cells assessed as decrease in cell viability at 1 uM after 72 hrs in absence of GPER agonist E2 by MTS assay. It is filed as functional, cell-based.
Another assay has as its system MCF7. The experiment in a line: Cytotoxicity against human MCF7 cells assessed as decrease in cell viability at 1 uM after 72 hrs in presence of GPER agonist E2 by MTS assay. It is filed as functional, cell-based.
Assay [7] deals with T1, G-protein coupled estrogen receptor 1. The experiment in a line: Agonist activity at GPER (unknown origin) expressed in human HL60 cells assessed as increase in cAMP accumulation in presence of IBMX after 15 mins by HTRF assay. It is filed as functional, cell-based.
In assay [8] the target is T2, Estrogen receptor (Homo sapiens) (UniProt P03372).
T2 sequence (whole entry): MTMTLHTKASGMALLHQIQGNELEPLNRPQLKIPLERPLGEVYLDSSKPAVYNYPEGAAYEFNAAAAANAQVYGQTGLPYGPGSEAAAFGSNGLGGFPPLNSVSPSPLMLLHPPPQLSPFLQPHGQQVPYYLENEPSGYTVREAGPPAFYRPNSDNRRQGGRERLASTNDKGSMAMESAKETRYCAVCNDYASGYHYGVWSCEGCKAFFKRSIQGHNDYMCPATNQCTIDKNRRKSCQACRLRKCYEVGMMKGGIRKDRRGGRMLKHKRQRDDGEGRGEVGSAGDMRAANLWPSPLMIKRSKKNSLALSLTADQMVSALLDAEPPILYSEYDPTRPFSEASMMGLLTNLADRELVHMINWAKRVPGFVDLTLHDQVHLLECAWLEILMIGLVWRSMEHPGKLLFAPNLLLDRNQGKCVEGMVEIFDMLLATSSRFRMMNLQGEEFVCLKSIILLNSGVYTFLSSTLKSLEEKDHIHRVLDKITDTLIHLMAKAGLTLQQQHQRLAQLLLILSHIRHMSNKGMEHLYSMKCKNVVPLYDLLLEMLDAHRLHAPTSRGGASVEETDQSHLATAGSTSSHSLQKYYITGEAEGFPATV
The experiment in a line: Displacement of fluoromone from recombinant human full length untagged estrogen receptor alpha expressed in insect cells at 1 uM after 2 hrs by fluorescence polarization assay.

For assay [9], the target named is Estrogen receptor beta (Homo sapiens) (UniProt Q92731). The assay can be described thus: Displacement of fluoromone from recombinant human full length untagged estrogen receptor beta expressed in insect cells at 1 uM after 2 hrs by fluorescence polarization assay.
For assay [10], the target named is T2, Estrogen receptor (Homo sapiens). The experiment in a line: Displacement of fluoromone from recombinant human full length untagged estrogen receptor alpha expressed in insect cells at.
The target of assay [11] is Estrogen receptor beta (Homo sapiens) (UniProt Q92731). The assay can be described thus: Displacement of fluoromone from recombinant human full length untagged estrogen receptor beta expressed in insect cells at.

In the case of `COc1cc(OC)c2[nH]c(C(=O)Nc3ncc(Cc4ccccc4)s3)cc2c1`, the inhibition result in assay [1] was “inactive”.
Regarding `CC(=O)c1ccc2c(c1)[C@@H]1C=CC[C@@H]1[C@H](c1cc3c(cc1Br)OCO3)N2`, the outcome (in the assay on HL-60; in assay [3]) was inactive. Further, the result in the assay with SK-BR-3 [2], in the assay with SK-BR-3 [4], with MDA-MB-231 [5], with MDA-MB-231 [6] and in the assay on MCF7 was Active.
Consider `CCc1nc(NC(=O)c2[nH]c3ccc(Br)cc3c2Cl)sc1C`, for which the EC50 in [7] amounted to 480 nM. Also, the outcome (in the assay with SK-BR-3 [2]; in assay [10]; in [11]; in the assay on SK-BR-3 [4]; in the assay on MDA-MB-231 [5]; with MDA-MB-231 [6]) was inactive. Also, the result (in [8]; in assay [9]; with MCF7) was Active.
For `O=C(Nc1ncc(Cc2ccc(F)cc2)s1)c1cc2cc(F)ccc2[nH]1`, the EC50 in assay [7] stood at 20 nM. For the same molecule, in assay [1], the inhibition entry is “inactive”. For the same molecule, the outcome in the assay on SK-BR-3 [2], in the assay on SK-BR-3 [4], in the assay on MDA-MB-231 [5] and in the assay on MDA-MB-231 [6] was inactive. Besides, the outcome in [8] and in [9] was Active.
Take `O=C(Nc1nc2c(s1)CCC2)c1cc2cc(F)ccc2[nH]1`: the outcome in [7] was inactive. Moreover, the inhibition result in assay [1] was “inactive”.
With `CC(C)c1csc(NC(=O)c2cc3c(Cl)cccc3[nH]2)n1`, in assay [7], the outcome was inactive. In assay [1], the inhibition result is “inactive”.
On to `CSc1ncc(Cl)c(C(=O)Nc2ncc(Cc3ccc(F)cc3)s2)n1`, for which, in assay [1], the inhibition entry was “inactive”.
Turning to `O=C(Nc1ncc(Cc2ccc(F)cc2F)s1)c1[nH]c2ccccc2c1Cl`, the 50% effective concentration (EC50) in [7] is 1620 nM. The result (in the assay on HL-60; in assay [3]; in [10]; in assay [11]) was inactive. Further, the result with SK-BR-3 [2], in the assay on SK-BR-3 [4], in the assay on MDA-MB-231 [5], in the assay on MDA-MB-231 [6] and in the assay on MCF7 was Active.
With `N#Cc1ccc(Cc2cnc(NC(=O)c3cc4cc(F)ccc4[nH]3)s2)cc1`, the inhibition entry in [1] is “inactive”.
Take `O=C(Nc1nc2c(s1)CCC2)c1cc2cc(Br)ccc2[nH]1`: the outcome in assay [7] was inactive. The inhibition entry in [1] is “inactive”.
`Brc1cc2c(cc1[C@@H]1Nc3ccccc3[C@@H]3C=CC[C@@H]31)OCO2`: the result in the assay with MDA-MB-231 [5] and with MDA-MB-231 [6] was inactive. Further, in the assay with MCF7, the outcome was Active.

In general, EC50 refers to the concentration needed to bring the measured effect to its halfway point.
